# In article PMC7269505, “An Engineered Double Lipid II Binding Motifs-Containing Lantibiotic Displays Potent and Selective Antimicrobial Activity against Enterococcus faecium” (Antimicrobial Agents and Chemotherapy, 2020):
# “And” between values parts separate entries of the source, which are not always exact repeats. Identical values can stand only once. Like-named read-outs stand apart in the source and are kept apart here. No end group written: not given here.
# What was measured:
# [1] = tested on: E. faecium ATCC U0317 (ACRE); assay: MIC by broth microdilution; type: cell-based, Enterococcus faecium; details: cation-adjusted MHB, approx. 5 × 10^5 cells per ml, 20 h, 37°C, triplicates
# Procedure: (§1) MIC was evaluated by broth microdilution according to the standard guidelines ([45]). Briefly, the test medium was cation-adjusted Mueller-Hinton broth (MHB). Cell concentration was adjusted to approximately 5 × 10^5 cells per ml. After 20 h of incubation at 37°C, the MIC was defined as the lowest concentration of antibiotic with no visible growth. Each experiment was performed in triplicates.
# Escherichia coli GSK 12 = assay: MIC by broth microdilution; type: cell-based; details: cation-adjusted MHB, approx. 5 × 10^5 cells per ml, 20 h, 37°C, triplicates
# Procedure: as §1
# Micrococcus flavus = assay: Screening of antibacterial activity by spot-on-lawn assay; type: cell-based; details: TCA-precipitated peptide 5 μl plus 1 μl NisP, GM17 0.8% agar, 30°C overnight (Fig. S1)
# Procedure: To assess the antibacterial activity of TCA-precipitated samples on a agar plate, an overnight culture of Micrococcus flavus was added to the GM17 containing 0.8% (wt/vol) agar (at 42°C), and then the mixture was poured onto the plates, 30 ml per plate. After that, 5 μl of the peptides together with 1 μl of NisP were added to the plates, and the plates were transferred to the 30°C incubator for incubation overnight.
# [2] = tested on: E. faecium (LMG16003; vancomycin-resistant strain); assay: Time-kill assay; type: cell-based, Enterococcus faecium; details: MHB, 37°C, CFU counts, triplicates
# Procedure: This assay was performed according to a previously described procedure ([29]). An overnight culture of cells (Enterococcus faecium LMG 16003; vancomycin-resistant strain) was diluted 50-fold in MHB and incubated at 37°C with aeration at 220 rpm. Bacteria were grown to an OD of 0.5, and then the cell concentration was adjusted to ≈5 × 10^5 cells per ml. Bacteria were then challenged with nisin (20 μM), nisin(1-22) (600 μM), or TL19 (10 μM) in culture tubes at 37°C and 220 rpm. (peptides at 10× MIC, a desirable concentration at the site of infection). Bacteria not treated with peptides were used as a negative control. At desired time points, 100-μl aliquots were taken, centrifuged at 8,000 × g for 2 min, and resuspended in 100 μl of MHB. Ten-fold serially diluted samples were plated on Mueller-Hinton agar (MHA) plates. After incubating at 37°C overnight, colonies were counted and CFU per milliliter was calculated. Each experiment was performed in triplicates.
# [3] = tested on: E. faecium LMG16003 cells; assay: Propidium iodide assay for membrane pore formation; type: cell-based, Enterococcus faecium; details: peptide 3 μM, propidium iodide 2.5 μg per ml, monitored for 3 h, excitation 533 nm, emission 617 nm
# Procedure: The excitation and emission wavelengths on the fluorescence spectrometer were adjusted to 533 nm and 617 nm, respectively. E. faecium LMG16003 was grown to an OD600 of 0.6. To this cell suspension, propidium iodide (final concentration, 2.5 μg per ml) was added and incubated for 5 min. Peptides were added to a final concentration of 3 μM. Fluorescence was monitored for 3 h, with the peptide added after ∼60 s.
# [4] = Complex formation with lipid II by thin-layer chromatography; type: binding; details: TLC, lipid II-lys or lipid II-dap (Fig. 4b1 and b2), 4 nmol, 30 min at 25°C
# Procedure: Purified lipid II-lys or lipid II-dap (4 nmol) was incubated in chloroform-methanol-water (2:3:1), in the presence of increasing TL19 concentrations (TL19/lipid II molar ratios ranging from 0.3 to 2:1) in a total volume of 30 μl. After incubating for 30 min at 25°C, the mixture was analyzed by thin-layer chromatography using chloroform-methanol-water-ammonia (88:48:10:1), and the spots were visualized by iodine vapor ([20], [26]).
# E. faecium LMG16003 [5] = assay: Spot-on-lawn assay to measure peptide-lipid II complex formation; type: cell-based, Enterococcus faecium; details: peptide 1 nmol, either lipid II-lys or lipid II-dap
# Procedure: An overnight cultured E. faecium LMG16003 was added to 0.8% MHA (wt/vol; temperature, 42°C) at a final concentration of 0.1% (vol/vol), and then the mixture was poured onto the plates (30 ml for each). Binding of peptide and lipid II was further evaluated by incubating purified lipid II with peptide in various molar ratios ranging from 0.5 to 2 with respect to the peptides (1 nmol). Subsequently, a spot-on-lawn assay was used to analyze the antimicrobial activity. After the lipid II solution drops with peptide had dried, the plates were transferred to the 37°C incubator for overnight incubation.
# E. faecium = assay: MIC comparison across E. faecium strains; type: cell-based, Enterococcus faecium; details: from MIC values; for higher antibacterial activity than nisin(1-22): antibiotic-resistant E. faecium
# Procedure: as §1
# E. faecium LMG16003 [6] = assay: Antimicrobial activity of TL19 mutants (agar spot assay, Fig. 5d); type: cell-based, Enterococcus faecium; details: 1 nmol peptide, after removal of the leader peptide with NisP (Fig. 5d)
# From the text: A highly conserved glutamate in HalA1 (Glu22) is essential for binding to its target lipid II ([12], [15], [16]). Mutating the glutamate residue in the CTLTXEC motif to alanine or glutamine completely abolished antibacterial activity ([15]). […] Therefore, either Glu34 in TL19 was mutated to Ala, Thr2 in TL19 was mutated to Asp, or both mutations were installed together in the same TL19 variant. […] NisC-catalyzed cyclization of the mutated peptides was investigated using CDAP treatment under reducing conditions followed by MS analysis.
# FIG 5 Importance of both lipid II binding motifs for antimicrobial activity against E. faecium LMG16003. MALDI-TOF MS data of TL19 or TL19 mutants before (blue) and after (red) treated with CDAP. (a) TL19 (2Asp); (b) TL19 (34Ala); (c) TL19 (2Asp, 34Ala). (d) Antimicrobial activity for TL19 mutants against E. faecium LMG16003: 1, TL19 (1 nmol); 2, TL19 (2Asp) (1 nmol); 3, TL19 (34Ala) (1 nmol); 4, TL19 (2Asp, 34Ala) (1 nmol); 5, TL19 (2Asp) (1 nmol) plus TL19 (34Ala) (1 nmol); 6, negative control (buffer).
# E. faecium 4Tom19 = type: cell-based, Enterococcus faecium
# Procedure: as §1
# E. faecium 6Tom18 = type: cell-based, Enterococcus faecium
# Procedure: as §1
# [7] = tested on: E. faecium ATCC E1162 (ARE); type: cell-based, Enterococcus faecium
# Procedure: as §1
# [8] = tested on: E. faecium ATCC E1321 (AGRE); type: cell-based, Enterococcus faecium
# Procedure: as §1
# [9] = tested on: E. faecium ATCC HF50105 (ETVRE); type: cell-based, Enterococcus faecium
# Procedure: as §1
# [10] = tested on: E. faecium ATCC TX0082 (AEKVRE); type: cell-based, Enterococcus faecium
# Procedure: as §1
# [11] = tested on: E. faecium ATCC TX0133a04; type: cell-based, Enterococcus faecium
# Procedure: as §1
# E. faecium LMG11423 = type: cell-based, Enterococcus faecium
# Procedure: as §1
# [12] = tested on: E. faecium LMG16003 (VRE); type: cell-based, Enterococcus faecium
# Procedure: as §1
# [13] = tested on: E. faecalis LMG16216 (VRE); type: cell-based, Enterococcus faecalis
# Procedure: as §1
# E. faecalis LMG8222 = type: cell-based, Enterococcus faecalis
# Procedure: as §1
# E. faecalis LMGV583 = type: cell-based, Enterococcus faecalis
# Procedure: as §1
# S. aureus LMG10147 = type: cell-based, Staphylococcus aureus
# Procedure: as §1
# B. cereus ATCC 10987 = type: cell-based, Bacillus cereus
# Procedure: as §1
# B. cereus ATCC 14579 = type: cell-based, Bacillus cereus
# Procedure: as §1
# A. baumannii LMG01041 = type: cell-based, Acinetobacter baumannii
# Procedure: as §1
# [14] = broth microdilution, cation-adjusted MHB, approx. 5 × 10^5 cells per ml, 20 h, 37°C, triplicates
compound,measurement,setting,value
"ITSISLCTPGCKTGALMGCNMKTATCHYCTLTVECMPSCN (also: bicyclic or more (positions not given here)) [TL19, lantibiotic with seven thioether rings]",MIC,[1],1.9 μM and 7.6 μg/ml
same,MIC,Escherichia coli GSK 12,> 15 μM and > 60 μg/ml
same,antimicrobial activity against Micrococcus flavus,Micrococcus flavus,potent antimicrobial activity
same,time to complete killing,"[2]; 10× MIC: nisin 20 μM, TL19 10 μM, ≈5 × 10^5 cells per ml",24 h
same,pore formation (propidium iodide fluorescence increase),[3],neither TL19 nor nisin(1-22) caused any fluorescence increase
same,lipid II migration at a low ratio (0.3:1) of TL19 to lipid II,[4],lipid II migration was significantly inhibited
same,antibacterial activity upon addition of lipid II at a 1:1 (peptide/lipid II) ratio,E. faecium LMG16003 [5],still showed potent antibacterial activity
same,higher antibacterial activity than TL17,E. faecium; E. faecium,4 fold
same,higher antibacterial activity than nisin(1-22),E. faecium,64 fold
"IDSISLCTPGCKTGALMGCNMKTATCHYCTLTVACMPSCN [TL19 (2Asp, 34Ala)]",antimicrobial activity relative to TL19,E. faecium LMG16003 [6],decreased or completely abolished the antimicrobial activity
ITSISLCTPGCKTGALMGCNMKTATCHYCTLTVACMPSCN [TL19 (34Ala)],antimicrobial activity relative to TL19,E. faecium LMG16003 [6],severely reduced the antimicrobial activity
"C=C1NC(=O)[C@H]([C@@H](C)CC)NC(=O)[C@H](NC(=O)/C(=C/C)NC(=O)[C@@H](N)[C@@H](C)CC)CSC[C@@H](C(=O)N[C@H]2C(=O)N3CCC[C@H]3C(=O)NCC(=O)N[C@H](C(=O)N[C@@H](CCCCN)C(=O)N[C@H]3C(=O)NCC(=O)N[C@@H](C)C(=O)N[C@@H](CC(C)C)C(=O)N[C@@H](CCSC)C(=O)NCC(=O)N[C@H](C(=O)N[C@@H](CC(N)=O)C(=O)N[C@@H](CCSC)C(=O)N[C@@H](CCCCN)C(=O)O)CS[C@H]3C)CS[C@H]2C)NC(=O)[C@H](CC(C)C)NC1=O [Nisin(1-22), reference compound]",MIC,"E. faecium 4Tom19; 4Tom19, 20 h",60 µM
same,MIC,E. faecium 4Tom19; [14],128 µg/mL
same,MIC,"E. faecium 6Tom18; 6Tom18, 20 h",30 µM
same,MIC,E. faecium 6Tom18; [14],64 µg/mL
same,MIC,"[7]; ATCC E1162, 20 h",> 60 µM
same,MIC,[7]; [14],> 128 µg/mL
same,MIC,"[8]; ATCC E1321, 20 h",60 µM
same,MIC,[8]; [14],128 µg/mL
same,MIC,"[9]; ATCC HF50105, 20 h",30 µM
same,MIC,[9]; [14],64 µg/mL
same,MIC,"[10]; ATCC TX0082, 20 h",60 µM
same,MIC,[10]; [14],128 µg/mL
same,MIC,"[11]; ATCC TX0133, 20 h",60 µM
same,MIC,[11]; [14],128 µg/mL
same,MIC,"E. faecium LMG11423; LMG11423, 20 h",60 µM
same,MIC,E. faecium LMG11423; [14],128 µg/mL
same,MIC,"[12]; LMG16003, 20 h",60 µM
same,MIC,[12]; [14],128 µg/mL
same,MIC,"[13]; LMG16216, 20 h",> 60 µM
same,MIC,[13]; [14],> 128 µg/mL
same,MIC,"E. faecalis LMG8222; LMG8222, 20 h",> 60 µM
same,MIC,E. faecalis LMG8222; [14],> 128 µg/mL
same,MIC,"E. faecalis LMGV583; LMGV583, 20 h",> 60 µM
same,MIC,E. faecalis LMGV583; [14],> 128 µg/mL
same,MIC,"S. aureus LMG10147; LMG10147, 20 h",15 µM
same,MIC,S. aureus LMG10147; [14],32 µg/mL
same,MIC,"B. cereus ATCC 10987; ATCC 10987, 20 h",> 60 µM
same,MIC,B. cereus ATCC 10987; [14],> 128 µg/mL
same,MIC,"B. cereus ATCC 14579; ATCC 14579, 20 h",30 µM
same,MIC,B. cereus ATCC 14579; [14],64 µg/mL
same,MIC,"A. baumannii LMG01041; LMG01041, 20 h",> 60 µM
same,MIC,A. baumannii LMG01041; [14],> 128 µg/mL
same,MIC,Escherichia coli GSK 12,> 128 µg/mL
same,effect on population of viable cells within 11 h postexposition,[2]; 10× MIC: nisin(1-22) 600 μM,did not reduce the population of viable cells
same,killing in 48 h,[2]; 10× MIC: nisin(1-22) 600 μM,only slight killing was observed
same,pore formation (propidium iodide fluorescence increase),[3],neither TL19 nor nisin(1-22) caused any fluorescence increase
"IDSISLCTPGCKTGALMGCNMKTATCHYCTLTVECMPSCN [TL19 (2Asp), TL19 variant in which Thr2 was mutated to Asp]",antimicrobial activity relative to TL19,E. faecium LMG16003 [6],almost abolished the antimicrobial activity
"ITSISLCTPGCKTGALMGCNMKTATCHCTLTVECMPSCN (also: bicyclic or more (positions not given here)) [TL17, incompletely modified, not all rings formed]",MIC,[1],7.5 μM and 29 μg/ml
same,MIC,Escherichia coli GSK 12,> 15 μM and > 58 μg/ml
same,antimicrobial activity against Micrococcus flavus,Micrococcus flavus,potent antimicrobial activity
same,higher antibacterial activity than nisin(1-22),E. faecium,16 fold
